Laboratory results taken from patent US11661439B2, “Peptide hydrogels and use thereof” (The United States of America, as represented by the …, priority 2017, dated 2023).

Key:
[1] = TEM analysis of peptide fibrils; type: physicochemical; details: 30 independent measurements
Protocol: FIG. 4. Fibril visualization of β-hairpin peptide hydrogels. Transmission Electron Microscopy (TEM) images of peptide fibrils and frequency distributions determined from 30 independent measurements (scale bar=100 nm).
Transmission electron microscopy (TEM) analysis. The hydrogel nanostructure of the peptide gels was observed using a Hitachi H-7650 transmission electron microscope at a voltage of 80 kV. A 1 wt % solution of peptide and an equal volume of buffer (50 mM HEPES containing 300 mM NaCl, pH 7.4) was mixed and incubated overnight at 37° C. to allow for gelation. The next day, samples for TEM analysis were prepared by suspending 5 μL of the resulting peptide gel in 195 μL of water to yield a 40-fold dilution. Small amounts (5 μL) of each diluted gel solution were applied to separate carbon coated copper grids. After 1 min, the grid was washed with water. Then, a 1 w/v % uranyl acetate aqueous solution was placed on each grid for negative staining. Excess staining solution was blotted away, left to air dry, and the grids were imaged immediately.

[2] = tested on: human dermal fibroblasts (HDFs); test: 2D cell culture of HDFs on gel surfaces; type: cell-based; details: Essential 8 Medium or serum-free DMEM
Protocol: 2D cell culture on peptide gels. Peptides were initially dissolved in water at 1 wt % on ice and mixed with an equal volume of ice-cold 2×HEPES buffer (50 mM HEPES, 300 mM NaCl, pH 7.4). The peptide solution (50 μL per well) was transferred to a non-tissue culture treated 96-well plates and incubated at 37° C. to initiate gelation. After 1 hour, HDFs (2×10^4 cells per 200 μL, per well) in serum-free DMEM, 10% FBS supplemented DMEM, or Essential 8 Medium (Thermo Fisher Scientific) were seeded on the peptide gels and cultured for 4 days. Bovine type I collagen gels (0.3 wt %, 50 μL per well) were prepared in 96-well plates following manufacturer's instructions.
Cell viability assay. Cell viability was evaluated by live and dead cell staining after 2D and 3D cell culture. Serum-free DMEM containing 1 μM calcein-AM and 2 μM ethidium homodimer-1 was added to the cells (200 μL per well for 2D culture and 500 μL each to the top and bottom of the gels for 3D culture). After incubation at 37° C. for 30 min, live and dead cells were visualized using EVOS FL Auto Cell Imaging System (Thermo Fisher Scientific). For the pseudo-colored composite image of varying heights of encapsulated cells, images of the live-stained cells were captured every 5 μm of height. Then Z-stack images for each 100 μm were flattened using the EVOS software, and the flattened images were pseudo-colored and merged using ImageJ.
Cell proliferation assay. A cell proliferation assay was performed using Cell Counting Kit-8 (CCK-8, Dojindo Molecular Technologies) for 2D and 3D cell culture. Serum-free DMEM containing 10% CCK-8 was added to the gels (200 μL per well for 2D culture; 500 μL to the top of the gels for 3D culture) and incubated for 2 hours at 37° C. Subsequently, media were transferred to 96-well plates (150 μL per well) and their absorbance measured at 450 nm relative to control viabilities from day 0 for 2D cell culture and day 1 for 3D cell culture. Experiments were performed in triplicate.
Cytoskeleton staining. For 2D cell culture, the peptide and collagen gels (70 μL) were prepared as described above on the glass bottom of 35 mm dishes (7 mm glass diameter, MatTek). HDFs in Essential 8 Medium (1.5×10^5 cells per 3 mL) were added to the dishes and incubated at 37° C. for 24 hours. Cells were fixed and permeabilized with 4% paraformaldehyde and 0.1% Triton X-100 in PBS for 15 min, and then blocked with 1% BSA in PBS. Cells were incubated with anti-vinculin antibody (hVIN-1, Sigma) for 1 hour at room temperature. Then, a goat anti-mouse IgG (H+L) cross-adsorbed secondary antibody, Rhodamine Red-X (2 μg mL^−1, Thermo Fisher Scientific), Alexa Fluor 488 phalloidin (5 units mL^−1, Thermo Fisher Scientific), and Hoechst 33342 (5 μg mL^−1, Invitrogen) in PBS were added to the dishes and incubated for 1 hour at room temperature. After washing, cells were visualized using an EVOS FL Auto Cell Imaging System.

[3] = Oscillatory rheology of protein-loaded AcVES3 hydrogels; type: physicochemical; details: at 60 min; 0.5 wt % AcVES3 hydrogel loaded with protein
Protocol: FIGS. 12A and 12B. […] (12A) Dynamic time sweep experiments. Hydrogels were set for 60 min, followed by 30 s of high strain, then a recovery period of 60 min. (12B) Storage moduli after 60 min. Bars outlined in black represent post shear storage moduli after 60 min recovery.
Oscillatory Rheology. Rheological assessment was conducted on a […] AR-G2 rheometer using a 25 mm stainless steel parallel geometry. A representative set of proteins was used to determine whether the fusion domain affected the material properties of the AcVES3 hydrogels. […] This solution was immediately applied to the center of the plate and the upper geometry was lowered to a gap height of […]. The temperature was increased from 5° C. to 37° C. over 100 s at a constant angular frequency of 6 rad s^−1 and 0.2% strain. The storage and loss moduli were monitored for 60 min at a constant angular frequency of 6 rad s^−1 and 0.2% strain at 37° C. […] The moduli were monitored for 60 min (6 rad s^−1, 0.2% strain, 37° C.), followed by the application of 1000% strain for 30 s to shear the gel, after which the strain was reduced to 0.2% and the gel was allowed to recover for 60 min (6 rad s^−1, 0.2% strain).

Substance | average fibril width [1] | cell adhesion of HDFs on gel surface ([2]; day 1) | cell adhesion of HDFs on gel surface ([2]; day 4) | storage moduli [3]
Ac-VEVSVSVEV^DPPTEVSVEVEV-NH2 [AcVES3] | 3.1±0.4 nm | adhered | most of the cells detached | 
EGFP: fluorescent protein EGFP, SEQ ID NO: 19, model heterologous protein with net negative charge |  |  |  | ~1000 Pa
